Laboratory results as given in US10221163B2 (priority 2015, dated 2019).
Where two headings read alike, the source gives them in different places.

How the values were obtained:
[1] = biological target: IMP-1 (Serratia marcescens, UniProt P52699); assay: biochemical; format: biochemical; conditions: fluorescence assay, CCF2-FA substrate, 2 pM enzyme, 2 hours at 25° C.; read-out: IMP-1 IC50
Procedure, shortened: (§1)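 Inhibitor was mixed with the metallo-β-lactamase and CCF2-FA. After 2 hours at 25° C, fluorescence of the coumarin–fluorescein cephalosporin substrate was read. IC50 was calculated with a 4-parameter fit.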

[2] = biological target: NDM-1 (Klebsiella pneumoniae, UniProt C7C422); assay: biochemical; format: biochemical; conditions: fluorescence assay, CCF2-FA substrate, 1 pM enzyme, 2 hours at 25° C.; read-out: NDM-1 IC50
Procedure, shortened: as §1

[3] = biological target: VIM-1 (Pseudomonas aeruginosa (strain ATCC 15692 / DSM 22644 / CIP 104116 / JCM 14847 / LMG 12228 / 1C / PRS 101 / PAO1), UniProt A0A0F7KYQ8); assay: biochemical; conditions: CCF2-FA substrate, 30 pM enzyme, 2 hours at 25° C.
Procedure, shortened: as §1

[4] = tested on: Escherichia coli expressing NDM-1 (CLB30005, CLB30016); format: cell-based; conditions: with imipenem 1 μg/ml; for Escherichia coli MITC95: NDM-1 strain, 95% inhibition of growth; for Escherichia coli expressing NDM-1 (CLB30016) MITC95: 95% inhibition of bacterial growth
Procedure, shortened: (§2)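 Clinical strains grown overnight on blood agar at 35°C, colonies suspended in saline, diluted 1:100 into 1.1×CAMHB. Test compound titrated with imipenem at 1 μg/ml; incubated 22–24 h at 35°C, growth read by absorbance.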

[5] = tested on: Klebsiella pneumoniae expressing VIM-1 (IHMA599644); format: cell-based; conditions: for Klebsiella pneumoniae MITC95: VIM-1 strain IHMA599644, with imipenem 1 μg/ml, 95% inhibition of growth; for Klebsiella pneumoniae expressing VIM-1 (IHMA599644) MITC95: with imipenem 1 μg/ml, 95% inhibition of bacterial growth
Procedure, shortened: as §2

[6] = tested on: Serratia marcescens expressing IMP-1 (CL5741); format: cell-based; conditions: for Serratia marcescens MITC95: IMP-1 strain CL5741, with imipenem 1 μg/ml, 95% inhibition of growth; for Serratia marcescens expressing IMP-1 (CL5741) MITC95: with imipenem 1 μg/ml, 95% inhibition of bacterial growth
Procedure, shortened: as §2

[7] = tested on: Pseudomonas aeruginosa efflux+ (MB9798), IMP-1; format: cell-based; set-up: Concentration of metallo-β-lactamase inhibitor which restores susceptibility of efflux + (MB9798) strain to imipenem: unit not given here; conditions: C, D serine β-lactamase inhibitor closely related to relebactam; for Concentration of metallo-β-lactamase inhibitor which restores susceptibility of efflux + (MB9798) strain to imipenem: imipenem at 2 μg/mL, in the presence of a class A; for P. aeruginosa expressing IMP-1, efflux + (MB9798) MITC95: concentration restoring susceptibility to imipenem at 2 μg/mL in the presence of a class A
Procedure, shortened: (§3)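 Steps: add fixed imipenem and/or ceftazidime (usually CLSI breakpoint) and fixed AmpC-directed class A/C inhibitor to microbroth MIC wells; titrate MBL inhibitor; record concentration regaining susceptibility for each PAO1-derived strain; divide efflux+ by efflux− value.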

[8] = tested on: Pseudomonas aeruginosa efflux− (MB9799), IMP-1; format: cell-based; conditions: C, D serine β-lactamase inhibitor closely related to relebactam; for Concentration of metallo-β-lactamase inhibitor which restores susceptibility of efflux − (MB9799) strain to imipenem: imipenem at 2 μg/mL, in the presence of a class A; for P. aeruginosa expressing IMP-1, efflux − (MB9799) MITC95: concentration restoring susceptibility to imipenem at 2 μg/mL in the presence of a class A
Procedure, shortened: as §3

[9] = tested on: Pseudomonas aeruginosa MB9798 vs MB9799
Procedure, shortened: as §3

[10] = fluorescence assay, read-out: VIM-1 IC50
[11] = fold difference between efflux+ (MB9798) and efflux− (MB9799) strains, imipenem at 2 μg/mL
[12] = ratio MITC95 PA_9798/MITC95 PA_9799

Chain of NDM-1 (C7C422 whole entry, looked up, species assumed): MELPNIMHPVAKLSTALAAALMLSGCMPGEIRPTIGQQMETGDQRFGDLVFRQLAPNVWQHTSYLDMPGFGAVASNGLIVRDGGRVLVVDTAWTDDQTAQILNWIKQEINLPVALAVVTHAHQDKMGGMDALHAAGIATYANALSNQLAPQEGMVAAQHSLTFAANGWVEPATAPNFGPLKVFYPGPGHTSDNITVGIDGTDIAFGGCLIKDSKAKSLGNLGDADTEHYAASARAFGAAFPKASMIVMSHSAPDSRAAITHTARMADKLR
Chain of IMP-1 (P52699 whole entry, looked up, species assumed): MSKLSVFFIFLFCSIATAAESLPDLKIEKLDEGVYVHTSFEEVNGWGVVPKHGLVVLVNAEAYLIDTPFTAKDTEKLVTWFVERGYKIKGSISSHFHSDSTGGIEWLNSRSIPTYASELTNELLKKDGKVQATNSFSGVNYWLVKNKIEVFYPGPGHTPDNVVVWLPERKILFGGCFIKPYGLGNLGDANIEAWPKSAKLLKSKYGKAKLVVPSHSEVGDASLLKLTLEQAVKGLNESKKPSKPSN

Row | SMILES | IC50 [1] | IC50 [2] | IC50 [3, 10] | Escherichia coli MITC95 [4] | Klebsiella pneumoniae MITC95 [5] | Serratia marcescens MITC95 [6] | Concentration of metallo-β-lactamase inhibitor which restores susceptibility of efflux + (MB9798) strain to imipenem [7] | Concentration of metallo-β-lactamase inhibitor which restores susceptibility of efflux − (MB9799) strain to imipenem [8] | Efflux ratio [9, 11] | Escherichia coli expressing NDM-1 (CLB30016) MITC95 [4] | Klebsiella pneumoniae expressing VIM-1 (IHMA599644) MITC95 [5] | Serratia marcescens expressing IMP-1 (CL5741) MITC95 [6] | P. aeruginosa expressing IMP-1, efflux + (MB9798) MITC95 [7] | P. aeruginosa expressing IMP-1, efflux − (MB9799) MITC95 [8] | Efflux ratio [9, 12] | IC50 ([3]; VIM-1 IC50, fluorescence assay)
1 | NS(=O)(=O)c1c(S(=O)(=O)NC[C@H]2CNCCN2)ccc(-c2cccc3[nH]cnc23)c1-c1nn[nH]n1 [Example 481, (R)-4-(1H-benzo[d]imidazol-4-yl)-N1-(piperazin-2-ylmethyl)-3-(1H-tetrazol-5-yl)benzene-1,2-disulfonamide] | 0.251 nM | 0.0455 nM | 0.119 nM | 3.125 µM | 3.125 µM | 1.563 µM | 1.563 | 1.563 | 1.00 |  |  |  |  |  |  | 
2 | Nc1nc2c(-c3ccc(S(=O)(=O)N4CC(N)C4)c(S(N)(=O)=O)c3-c3nn[nH]n3)cccc2s1 [Example 147, 6-((3-aminoazetidin-1-yl)sulfonyl)-3-(2-aminobenzo[d]thiazol-4-yl)-2-(2H-tetrazol-5-yl)benzenesulfonamide] | 0.494 nM | 0.55 nM | 0.559 nM |  |  |  |  |  |  | 25 µM | 12.5 µM | 6.25 µM | 3.125 µM | 3.125 µM | 1.00 | 
3 | C[C@H](N)Cc1nc2c(-c3ccc(S(N)(=O)=O)c(S(N)(=O)=O)c3-c3nn[nH]n3)cccc2[nH]1 [Example 442, (S)-4-(2-(2-aminopropyl)-1H-benzo[d]imidazol-4-yl)-3-(2H-tetrazol-5-yl)benzene-1,2-disulfonamide] | 1.33 nM | 0.431 nM |  | 1.563 µM | 3.125 µM | 1.563 µM | 0.7813 | 1.563 | 0.50 |  |  |  |  |  |  | 0.249 nM
4 | CNS(=O)(=O)c1ccc(-c2cccc3sc(N)nc23)c(-c2nn[nH]n2)c1S(N)(=O)=O [Example 152, 4-(2-aminobezno[d]thiazol-4-yl)-N1-methyl-3-(2H-tetrazol-5-yl)benzene-1,2-disulfonamide] | 0.264 nM | 0.072 nM | 0.195 nM |  |  |  |  |  |  | 3.125 µM | 6.25 µM | 3.125 µM | 12.5 µM | 1.563 µM | 8.00 | 
5 | Nc1nc2c(-c3ccc(S(N)(=O)=O)c(S(N)(=O)=O)c3-c3nn[nH]n3)cccc2s1 [Example 143, 4-(2-aminobenzo[d]thiazol-4-yl)-3-(2H-tetrazol-5-yl)benzene-1,2-disulfonamide] | 0.266 nM | 0.0849 nM | 0.22 nM |  |  |  |  |  |  | 3.125 µM | 12.5 µM | 1.563 µM | 0.7813 µM | 1.563 µM | 0.50 | 
